From PubChem BioAssay (NCI)
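Five compound concentrations were applied to cells in 96-well plates for 48 hours; endpoints were derived by simple linear interpolation of the resulting dose-response curve. Abbreviation: GI50, concentration required for 50% inhibition of growth. TGI is the concentration that stops growth completely.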 Where a SMILES comes first, the peptide text is derived from it. [ ]: non-standard residue; d: D form. The star is where a group is joined. ξ: configuration not given here. ξD = NC(CC(=O)O)C(=O)O; Ac3c = NC1(C(=O)O)CC1; Boc = CC(C)(C)OC(=O)*; OBn = c1ccc(CO*)cc1

Tests used:
Experiment in all cases: DTP human tumour cell line panel, 48 h
[1] = tested on: 786-0 renal
[2] = tested on: A498 renal
[3] = tested on: ACHN renal
[4] = tested on: CAKI-1 renal
[5] = tested on: EKVX NSCLC
[6] = tested on: HOP-92 NSCLC
[7] = tested on: MDA-MB-435
[8] = tested on: OVCAR-3 ovarian
[9] = tested on: SK-MEL-5 melanoma
[10] = tested on: SNB-19 CNS

Row | SMILES | TGI [1] [µM] | TGI [2] [µM] | TGI [3] [µM] | TGI [4] [µM] | TGI [5] [µM] | TGI [6] [µM] | TGI [7] [µM] | TGI [8] [µM] | TGI [9] [µM] | TGI [10] [µM] | GI50 [2] [µM] | GI50 [3] [µM] | GI50 [4] [µM] | GI50 [5] [µM] | GI50 [6] [µM] | GI50 [7] [µM] | GI50 [9] [µM]
1 | O=c1c2ccccc2n2nnc3ccc(NCCCNCCNCCCNc4ccc5nnn6c7ccccc7c(=O)c4c56)c1c32 | 21.3 | > 37 | > 18 | 12.8 | 20.3 | > 50 | > 50 | 16.8 | > 50 | 35.3 |  |  |  |  |  |  | 
2 | OCC(O)C1OC2CC1Nc1ccccc1N2 (stereo unspecified) | > 100 | > 100 | > 100 | > 100 | > 100 | > 100 | > 100 | > 100 | > 100 | > 100 |  |  |  |  |  |  | 
3 | Cc1nccn1S(=O)(=O)c1ccc(Br)cc1Br | > 100 | > 100 | > 100 | > 100 | 96.8 | 75.3 | 46 | 55.4 | 43.9 | 90.3 |  |  |  |  |  |  | 
4 | NC(c1ccccc1)(C(F)(F)F)P1(=O)OC(=O)c2ccccc2O1 (stereo unspecified) | > 100 | > 100 | > 100 | > 100 | > 100 | 85 | > 100 | > 100 | > 100 | > 100 |  |  |  |  |  |  | 
5 | Cc1cccc2nc3cccc(C(=O)NCCC[N+](C)(CCCNC(=O)c4cccc5nc6cccc(C)c6nc45)Cc4c([N+](=O)[O-])ncn4C)c3nc12 | > 1100 | > 1100 | > 1100 | > 1100 | > 1100 | > 1100 | > 1100 | > 1100 | 366 | > 1100 | > 1100 | 3.59 | 107 | 443 | > 1100 | 191 | 12.1
6 | O=C(NC1(C(=O)NNc2nnc(-c3ccccc3)c(-c3ccccc3)n2)C(c2ccccc2)C(c2ccccc2)=NN1c1ccccc1)c1ccccc1 (stereo unspecified) | > 100 | > 100 | > 100 | > 100 | > 100 | > 100 | > 100 | > 100 | > 100 | > 100 |  |  |  |  |  |  | 
7 | COC(=O)/C=C\C(C#N)(C#N)N=Cc1ccc(C)s1 | 3.2 | 34.7 | 3.66 | 4.78 | 15.3 | 3.24 | 7.65 | 9.81 | 19.7 | 32.8 |  |  |  |  |  |  | 
8 | COC(=O)C1(NC(=O)C(CC(=O)OCc2ccccc2)NC(=O)OC(C)(C)C)CC1 (stereo unspecified) (Boc-[ξD](OBn)-[Ac3c]-OMe) | > 100 | > 100 | > 100 | > 100 | > 100 | > 100 | > 100 | > 100 | > 100 | > 100 |  |  |  |  |  |  | 
9 | Cc1cc(Nc2ccc(N=Nc3ccc(O)c4ncccc34)cc2)nc(C)n1 | 54.2 | 46.1 | > 77.9 | 71 | > 79.3 | 46.7 | 29.6 | > 29.5 | 26.3 | > 100 |  |  |  |  |  |  | 
10 | CC(NC1=NCCO1)c1cccc([N+](=O)[O-])c1 (stereo unspecified) | > 100 | > 100 | > 100 | > 100 | > 100 | > 100 | > 100 | > 100 | > 100 | > 100 |  |  |  |  |  |  | 
11 | Nc1ccc(-c2nc3cc(F)ccc3s2)cc1I | 32 | 31.2 | 24.6 | 72.5 | 43.9 | 39.3 | > 100 | > 37.9 | > 70.4 | 54.9 |  |  |  |  |  |  | 
12 | C=CCN(c1cc(OCc2ccccc2)c(NC(C)=O)cc1[N+](=O)[O-])S(C)(=O)=O | 49.2 | 41.6 | > 100 | > 100 | 33.8 | 41.2 | > 100 | > 100 | > 100 | 36.1 |  |  |  |  |  |  | 
13 | O=C(CN1CCCCC1)c1ccc2c(c1)Sc1ccccc1O2 | 33.2 | 39.3 | 27.7 | 37.2 | 36.1 | 28 | 33.9 | 29.6 |  | 28.9 |  |  |  |  |  |  | 
14 | CC1(C)[C@@H](Cn2cnc3c(=O)[nH]c(N)nc32)CC[C@@]1(C)CO | > 100 | > 100 | > 100 | > 100 | > 100 | > 100 | > 100 | > 100 | > 100 | > 100 |  |  |  |  |  |  | 
15 | CCOC(=O)C1=C(C)C(C(=O)OC)/C(=C/c2cccc3cccnc23)C1=O (stereo unspecified) | > 10 | > 10 | > 10 | > 10 | > 10 | > 10 | > 10 | > 10 | > 10 | > 10 |  |  |  |  |  |  | 
16 | N#Cc1c(N2CCCC2)ncn(Cc2ccccc2)c1=S | > 100 | > 100 | > 100 | > 100 | > 100 | 99.3 | > 100 | > 100 | > 100 | > 100 |  |  |  |  |  |  | 
17 | CC(C)(C)OC(=O)NC(Cc1ccc(O)cn1)C(N)=O (stereo unspecified) | > 100 | > 100 | > 100 | > 100 | > 100 | > 100 | > 100 | > 100 | > 100 | > 100 |  |  |  |  |  |  | 
